Results: patent US6822146B2, “Sulfonylurea-tolerant sunflower line M7” (priority 2000, dated 2004)
Like-named read-outs stand apart in the source and are kept apart here.

How the values were obtained:
'M11' = assay: Tolerance of M11 to rimsulfuron; settings: in vivo
BC4-M5M12 = assay: Test B greenhouse phytotoxicity, BC4-M5M12; type: in vivo, sunflower; settings: in vivo
Description: (§1) A greenhouse experiment was conducted to evaluate the spectrum of tolerance of three homozygous resistant mutants to various herbicides inhibiting acetolactate synthase (ALS) as their mode of action. The inbred lines tested were the 5th generation self-pollinated maintainers, M5M7, M5M11 and M5M12, as well as the 4th generation male sterile back-crosses BC4-M5M7, BC4-M5M11 and BC4-M5M12. Treatments of formulated herbicides were applied post-emergence at the 4-leaf stage. Application rates of the test herbicides were chosen to coincide with the rates commonly used in the crops for which they are registered. The application rate of imazethapyr was chosen to match the rate recommended to control parasitic weeds in sunflowers by L. García-Torres et al., Weed Technology 1995, 9, 819-824. Wild type H89 inbred sunflower was not included in this test, because the many of the tested herbicides are known to be efficacious in controlling volunteer sunflower as a weed. Treatments were replicated twice. […] A rating of 0% phytotoxicity means no crop injury.

M5M11 = assay: Test B greenhouse phytotoxicity, M5M11; type: in vivo, sunflower; settings: in vivo
Description: as §1

M5M7 = assay: Test B greenhouse phytotoxicity, M5M7; type: in vivo, sunflower; settings: in vivo
Description: as §1

[1] = system: Hybrid control: H89A × RHA274; type: in vivo, sunflower; settings: variety A
Source text: (§2) To generate the hybrids C, D and E, the fourth generation self-pollinated maintainer mutant lines M4M12, M4M11 and M4M7 were chemically sterilized by applying at the bud “star” flower stage a small amount of gibberellic acid solution to sterilize the pollen according to the general method described in Sunflower Science Technology, J. F. Carter ed. (Number 19 in the series “Agronomy”) pp. 339-386. This treatment enables maintainer plants to behave as CMS inbred lines and allows the production of heterozygous resistant hybrids, with the herbicide resistant source coming from the female side. Such crosses allowed evaluating the sexual effect of the mutation source when introduced on the female side of a cross as described in crosses C, D and E versus the male side of a cross as described in crosses F, G and H. Labels I, J and K identify third generation CMS mutant lines crossed with fourth generation maintainer lines to maintain the highly heritable mutant trait in a male sterile homozygous resistant environment. One skilled in sunflower breeding art understands the meaning of such crosses.
(§3) A rating of 0% phytotoxicity means no crop injury.

H89A × M4M12 = type: in vivo, sunflower; settings: variety F
Source text: as §2, §3

H89A × M4M7 = type: in vivo, sunflower; settings: variety H
Source text: as §2, §3

H89A × M4M11 = type: in vivo, sunflower; settings: variety G
Source text: as §2, §3

[2] = system: Inbred line control: H89A; type: in vivo, sunflower; settings: variety B
Source text: as §2, §3

[3] = system: acetolactate synthase (ALS) from M2E24; assay: ALS activity remaining, M2E24 extract; type: biochemical, sunflower; settings: mutant line selected with rimsulfuron, in the presence of rimsulfuron
M5M12 = assay: Test B greenhouse phytotoxicity, M5M12; type: in vivo, sunflower; settings: in vivo
Description: as §1

BC4-M5M7 = assay: Test B greenhouse phytotoxicity, BC4-M5M7; type: in vivo, sunflower; settings: in vivo
Description: as §1

[4] = system: homozygous progeny of the three mutant sources; type: in vivo, sunflower; settings: Test B application rates, post-emergence
Description: as §1

BC4-M5M11 = assay: Test B greenhouse phytotoxicity, BC4-M5M11; type: in vivo, sunflower; settings: in vivo
Description: as §1

[5] = system: Homozygous resistant inbred lines, BC3-M4M12 (I), BC3-M4M11 (J) and BC3-M4M7 (K); assay: Test A summary, homozygous resistant inbred lines; settings: in vivo
Description: In a small field trial, the sunflower varieties described in Table 4 were sprayed post-emergence with a variety of sulfonylurea herbicide treatments.
Broadcast post-emergence applications of formulated sulfonylurea herbicides were performed at the 6-leaf development stage using four randomly distributed replications. Application rates were chosen to match the usual use rates of these herbicides in the crops they are registered in Europe. All herbicides except for metsulfuron-methyl were sprayed in combination with Citowet® non-ionic ethoxylated alcohol at 0.25% volume of formulated product per volume of water applied per hectare.
The evaluation of the maximum (i.e. peak) injury to sunflower varieties by sulfonylurea herbicides was measured by visual ratings, which are listed in Table 5. A rating of 0% phytotoxicity means no crop injury. […] A rating of 100% means the complete destruction of all plants.

BC2-M3M12 = assay: Test G control of volunteer sunflower, BC2-M3M12; type: in vivo; settings: rated 4 weeks after application, scale 0-100
[6] = system: ALS enzymes of the mutant lines selected with thifensulfuron-methyl; assay: ALS activity of mutant lines relative to wild-type H89B; type: biochemical, sunflower; settings: in the presence of thifensulfuron-methyl
[7] = system: mutants originating from M11 and M12; settings: tribenuron-methyl up to 60 g a.i./ha; others at Test G rates
Source text: This test involved sulfonylurea-resistant sunflower progeny BC2-M3M11 and BC2-M3M12, derived from M11 and M12, respectively. Also, a sulfonylurea-susceptible hybrid, H89A×RHA274, was included for comparison. Plants were sprayed with formulated herbicides at the 4-leaf stage. The efficacy of the treatments on the sunflowers was visually rated 4 weeks after application, using a scale where 0 means no control of the sunflowers, 85 means sufficient efficacy level to stop plants from flowering and propagating, and 100 means a complete destruction of the mutants.
Weed control in sugar beet requires 2-3 herbicide applications per season to efficiently control weeds in this slow growing crop.

BC2-M3M11 = assay: Test G control of volunteer sunflower, BC2-M3M11; type: in vivo; settings: rated 4 weeks after application, scale 0-100
[8] = system: H89A × RHA274 (sulfonylurea-susceptible hybrid); assay: Test G control of volunteer sunflower, H89A × RHA274; type: in vivo; settings: rated 4 weeks after application, scale 0-100

For `CCS(=O)(=O)c1cccnc1S(=O)(=O)NC(=O)Nc1nc(OC)cc(OC)n1` [Rimsulfuron, rimsulfuron], the “tolerance of M11” value ('M11') was “not tolerant”, the “Maximum Phytotoxicity” value (BC4-M5M12) was 65% and the “Maximum Phytotoxicity” value (M5M11) was 65%. The “Maximum Phytotoxicity” value (M5M7) was 52.5%, the “Maximum Phytotoxicity” value ([1]; 15 g a.i./ha post-emergence) was 100% and the “Maximum Phytotoxicity” value ([1]; 30 g a.i./ha post-emergence) was 100%. For the same compound, the “Maximum Phytotoxicity” value (H89A × M4M12; 15 g a.i./ha post-emergence) was 98%, the “Maximum Phytotoxicity” value (H89A × M4M12; 30 g a.i./ha post-emergence) was 100% and the “Maximum Phytotoxicity” value (H89A × M4M7; 15 g a.i./ha post-emergence) was 96%. For the same compound, the “Maximum Phytotoxicity” value (H89A × M4M7; 30 g a.i./ha post-emergence) was 100%, the “Maximum Phytotoxicity” value (H89A × M4M11; 15 g a.i./ha post-emergence) was 98% and the “Maximum Phytotoxicity” value (H89A × M4M11; 30 g a.i./ha post-emergence) was 100%. The “Maximum Phytotoxicity” value ([2]; 15 g a.i./ha post-emergence) was 100%, the “Maximum Phytotoxicity” value ([2]; 30 g a.i./ha post-emergence) was 100% and the “ALS activity retained relative to wild-type ALS from H89B” value [3] was 4-6 times. The “Maximum Phytotoxicity” value (M5M12) was 55%, the “Maximum Phytotoxicity” value (BC4-M5M7) was 45% and the “tolerance of the mutants” value [4] was “somewhat sensitive”. For the same compound, the “Maximum Phytotoxicity” value (BC4-M5M11) was 47.5% and the “tolerance of homozygous resistant inbred lines I, J, K” value [5] was “as susceptible as the standards”.
With `COC(=O)c1sccc1S(=O)(=O)NC(=O)Nc1nc(C)nc(OC)n1` [Thifensulfuron-methyl, thifensulfuron-methyl] the “Efficacy on BC2-M3M12” value (BC2-M3M12; 10 g a.i./ha) was 10, the “Efficacy on BC2-M3M12” value (BC2-M3M12; 20 g a.i./ha) was 16 and the “Efficacy on BC2-M3M12” value (BC2-M3M12; 40 g a.i./ha) was 32. For the same compound, the “Efficacy on BC2-M3M12” value (BC2-M3M12; 60 g a.i./ha) was 58, the “ALS activity retained relative to wild-type ALS from H89B” value [6] was 2-6 times and the “resistance/tolerance of the mutants” value [7] was “to a lesser extent than with tribenuron-methyl”. The “Maximum Phytotoxicity” value ([1]; 35 g a.i./ha post-emergence) was 100%, the “Maximum Phytotoxicity” value ([1]; 70 g a.i./ha post-emergence) was 99% and the “Maximum Phytotoxicity” value (H89A × M4M12; 35 g a.i./ha post-emergence) was 78%. For the same compound, the “Maximum Phytotoxicity” value (H89A × M4M12; 70 g a.i./ha post-emergence) was 89%, the “Maximum Phytotoxicity” value (H89A × M4M7; 35 g a.i./ha post-emergence) was 80% and the “Maximum Phytotoxicity” value (H89A × M4M7; 70 g a.i./ha post-emergence) was 90%. For the same compound, the “Maximum Phytotoxicity” value (H89A × M4M11; 35 g a.i./ha post-emergence) was 81%, the “Maximum Phytotoxicity” value (H89A × M4M11; 70 g a.i./ha post-emergence) was 90% and the “Maximum Phytotoxicity” value ([2]; 35 g a.i./ha post-emergence) was 100%. The “Maximum Phytotoxicity” value ([2]; 70 g a.i./ha post-emergence) was 100%, the “Efficacy on BC2-M3M11” value (BC2-M3M11; 10 g a.i./ha) was 2 and the “Efficacy on BC2-M3M11” value (BC2-M3M11; 20 g a.i./ha) was 17. For the same compound, the “Efficacy on BC2-M3M11” value (BC2-M3M11; 40 g a.i./ha) was 50, the “Efficacy on BC2-M3M11” value (BC2-M3M11; 60 g a.i./ha) was 74 and the “Efficacy on H89A × RHA274” value ([8]; 10 g a.i./ha, 4-leaf stage) was 100. For the same compound, the “Efficacy on H89A × RHA274” value ([8]; 20 g a.i./ha) was 100, the “Efficacy on H89A × RHA274” value ([8]; 40 g a.i./ha) was 100 and the “Efficacy on H89A × RHA274” value ([8]; 60 g a.i./ha) was 100. The “tolerance of homozygous resistant inbred lines I, J, K” value [5] was “less susceptible than the standards” and the “tolerance of homozygous resistant lines compared with heterozygous hybrids” value [5] was “the homozygous resistant lines were more tolerant”.
